Measured values: US20240180221A1, “METHODS AND COMPOSITIONS FOR IMPROVED TASTE QUALITY” (ALMENDRA PTE. LTD., priority 2021, published 2024)

Tested on: human taste testers
Test: Tasting of amino acid solutions in citric acid buffer for bitterness, with and without taste modulator
Format: in vivo
Settings: for bitterness intensity: 7.5 mM solution in pH 3.2 CAB, 0-15 intensity scale; for Bitter Taste Threshold in CAB: pH 3.2 Citric Acid Buffer, serial dilutions from 30 mM to 1.88 mM tasted in ascending order

SMILES | bitterness intensity | Bitter Taste Threshold in CAB | bitterness onset and linger (in pH 3.2 CAB)
N[C@@H](Cc1ccccc1)C(=O)O [L-Phe, L-Phenylalanine] | 5 | ca. 3 mM | 
N[C@@H](Cc1c[nH]c2ccccc12)C(=O)O [L-Trp, L-Tryptophan] | 5 | ca. 3 mM | noticeably slow in onset and quite lingering
